Positions of bridges follow the written chain, without caps; N, C: chain ends. Non-standard residues stand in square brackets, D forms with d. No end group written: not given here. hArg = N=C(N)NCCCC[C@H](N)C(=O)O; Cit = NC(=O)NCCC[C@H](N)C(=O)O
What was measured:
Type in all cases: cell-based
[1] = test system: murine E^k MHC class II allele; experiment: antigenic peptide prepulse assay, E^k allele (fixed APC prepulsed with PGCC81-104); conditions: AE peptide 64 μM; for Activity in antigenic peptide prepulse assay, E^k (baseline = 1.0): prepulse 1.25 μM antigenic peptide; for Activity in antigenic peptide prepulse assay, E^k (baseline = 1.00): Table 25, prepulse 2.5 μM antigenic peptide, supernatant 1:10
Summary of the method: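 Paraformaldehyde-fixed APC were loaded for 6 h with antigenic peptide (PGCC81-104 for E^k), washed, then cultured for 24 h with specific T hybridoma plus AE101 peptide. Interleukin release was measured as HT-2 proliferation on supernatant.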

[2] = test system: murine E^k MHC class II allele; experiment: AE101 series peptide prepulse assay, E^k allele; conditions: Table 35; AE101 series peptide prepulse 64 μM; antigenic peptide 0.4 μM; supernatant dilution 1:2
Procedure: (§1) Table 35: Activities of multiple substitution analogs of AE235, targeting the E^k and E^d allele, in an AE101 series peptide prepulse assay. In this assay the concentration of AE101 series peptides used during the prepulse was 64 μM. The concentrations of antigenic peptides were 0.3 μM for Ed and 0.4 μM for E^k. The supernatant dilutions taken into the HT-2 cell assay was 1:4 for E and 1:2 for E^k. The AE381 peptide is a head-to-tail cyclization: the amino terminal amino group is coupled through an amide linkage to the carboxyl terminal group. The AE 382 peptide is a side-to-tail cyclization: the epsilon amino group of Lys^4 is coupled through an amide linkage to the carboxyl terminal group.
(§2) AE101 series peptide prepulse assays were carried out in the E^d and E^k systems as described for simultaneous competition assays with the following modifications. Fixed APC were first incubated for 6 h at 1×10^6DMEM-5% FCS with 64 μM of each AE101 series peptide or with PBS. The APC were then washed four times with ten volumes of DMEM-5% FCS, and were cocultured with T hybridoma cells and the indicated submaximal doses of antigenic peptides used in the simultaneous competition assays. The baseline T cell response was measured by culturing T hybridoma cells with antigenic peptide and PBS-pretreated APC.

[3] = molecular target: T1, murine E^d MHC class II allele (Mus musculus, UniProt P01904+P01915); experiment: AE101 series peptide prepulse assay, E^d allele; conditions: for T cell response relative to baseline with PBS-pretreated APC (NONE = 1.0), E^d: Table 35, AE101 series peptide prepulse 64 μM, antigenic peptide 0.3 μM, supernatant dilution 1:4
T1 sequence (P01904 26-255): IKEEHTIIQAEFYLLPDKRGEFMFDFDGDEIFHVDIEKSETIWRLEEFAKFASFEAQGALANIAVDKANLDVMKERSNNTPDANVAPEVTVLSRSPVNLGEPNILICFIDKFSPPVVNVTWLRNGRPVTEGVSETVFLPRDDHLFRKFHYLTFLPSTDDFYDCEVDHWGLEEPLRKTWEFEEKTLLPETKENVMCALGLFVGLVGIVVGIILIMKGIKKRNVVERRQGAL
T1 sequence (P01915 27-264 limits assumed): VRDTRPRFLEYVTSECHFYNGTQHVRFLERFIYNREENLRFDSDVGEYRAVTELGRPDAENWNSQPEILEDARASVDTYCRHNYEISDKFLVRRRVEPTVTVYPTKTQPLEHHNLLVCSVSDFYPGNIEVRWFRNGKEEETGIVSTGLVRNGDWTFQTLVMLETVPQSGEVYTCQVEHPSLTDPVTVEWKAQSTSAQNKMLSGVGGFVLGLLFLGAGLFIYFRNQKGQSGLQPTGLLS
Procedure: as §1, §2

With Ac-FK HArg MYP Cit-NH2 [AE371] the “Activity in antigenic peptide prepulse assay, E^k (baseline = 1.0)” value (shortened to “Activity … (baseline = 1.0)”) ([1]; Table 26, supernatant 1:8) was 0.99.

In the case of Ac-LRMKLPK (lactam 4-C) [AE382], the “T cell response relative to baseline with PBS-pretreated APC (NONE = 1.0), E^k” value (shortened to “T cell response relative to baseline … E^k”) [2] is reported as 3.2, the “Activity … (baseline = 1.0)” value ([1]; Table 28, supernatant 1:4) is reported as 0.70 and the “T cell response relative to baseline with PBS-pretreated APC (NONE = 1.0), E^d” value (“T cell response relative to baseline … E^d” below) [3] is reported as 1.7.

Ac-A[Cit]NKNPK-NH2 [AE351] was tested, and the “Activity in antigenic peptide prepulse assay, E^k (baseline = 1.00)” value (from here on “Activity … (baseline = 1.00)”) [1] was 0.90.

For Ac-LKMKYPK-NH2 [AE362], the “Activity … (baseline = 1.0)” value ([1]; Table 26, supernatant 1:8) was 0.91.

For Ac-LRLKYPN-NH2 [AE368], the “Activity … (baseline = 1.0)” value ([1]; Table 26, supernatant 1:8) was 0.92.

In the case of Ac-LK HArg KYPK-NH2 [AE363], the “Activity … (baseline = 1.0)” value ([1]; Table 26, supernatant 1:8) is reported as 0.97.

Ac-LRMMYP[Cit]-NH2 [AE367] was tested, and the “Activity … (baseline = 1.0)” value ([1]; Table 26, supernatant 1:8) was 0.99.

For Ac-LR Orn K HArg PK-NH2 [AE340], the “Activity … (baseline = 1.00)” value [1] was 0.83.

In the case of “cyclic LRMKLPK (bridge (positions not given here); also: cyclic, ring type not given here) [AE381, “head-to-tail” cyclization from the amino-terminus to the carboxyl-terminus of AE114]”, the “T cell response relative to baseline … E^k” value [2] is reported as 0.3, the “Activity … (baseline = 1.0)” value ([1]; Table 28, supernatant 1:4) is reported as 0.28 and the “T cell response relative to baseline … E^d” value [3] is reported as 1.0. The “activity in the AE101 series peptide prepulse assay, in words” value ([3]; text on Table 35, AE peptide prepulse 64 μM, E^d and E^k systems) was “potent suppressive activity”.

Ac-LRMKNPF-NH2 [AE350] was tested, and the “Activity … (baseline = 1.00)” value [1] was 0.86.

In the case of Ac-L[hArg]LKYPK-NH2 [AE361], the “Activity … (baseline = 1.0)” value ([1]; Table 26, supernatant 1:8) is reported as 1.00.

In the case of Ac-LR HArg MYPK-NH2 [AE365], the “Activity … (baseline = 1.0)” value ([1]; Table 26, supernatant 1:8) is reported as 0.42.

In the case of Ac-LRMKYPN-NH2 [AE370], the “Activity … (baseline = 1.0)” value ([1]; Table 26, supernatant 1:8) is reported as 0.58.

For Ac-LR HArg KYP Cit-NH2 [AE366], the “T cell response relative to baseline … E^k” value [2] was 3.5, the “Activity … (baseline = 1.0)” value ([1]; Table 26, supernatant 1:8) was 0.94 and the “T cell response relative to baseline … E^d” value [3] was 7.5.

With Ac-L[hArg]MKYPK-NH2 [AE360] the “Activity … (baseline = 1.0)” value ([1]; Table 26, supernatant 1:8) was 0.94.

Ac-LRMKYP[Cit]-NH2 [AE364] was tested, and the “Activity … (baseline = 1.0)” value ([1]; Table 26, supernatant 1:8) was 0.93.

From patent US6835382B2, “Ii peptide therapeutics to enhance antigen presentation” (University of Massachusetts, priority 1996, dated 2004)
